Data reported in ChEMBL document CHEMBL1151336, “Recent Biosynthetic Studies on Antibiotics” (J Nat Prod, 1980).
≈ marks a conversion by molar mass, not a printed value.

Experiments:
[1] = system: Bacillus subtilis; experiment: Antibacterial activity against Bacillus subtilis; format: functional
[2] = system: KB; experiment: Cytotoxicity against human KB cells; format: functional
[3] = Toxicity in orally dosed mouse; format: organism-based; settings: in vivo, po
[4] = system: Rous sarcoma virus; experiment: Antiviral activity against Rous sarcoma virus at 0.5 mg/kg; format: functional

## CC(=O)c1cccc(N[C@H]2[C@H](N)[C@@](NC(=O)N(C)C)([C@H](C)O)[C@@](C)(O)[C@@]2(O)COC(=O)c2c(C)cccc2O)c1 [PACTAMYCIN]
[1]
  MIC: 0.8 µg/mL (≈ 1.43 µM)
[2]
  MIC: 0.003 µg/mL (≈ 0.00537 µM)
[3]
  LD50: 10.7 mg/kg
[4]
  inhibition in vivo at 0.5 mg/kg: 30%
